US5403840A, “Inclusion complexes of N-ethoxycarbonyl 1-3-morpholino-sydnonimine or salts formed with cyclodextrin-derivatives, preparation thereof and pharmaceutical compositions containing the same” (Chinoin Gyogyszer-Es Vegyeszeti Termekek Gyar Rt., priority 1990, dated 1995)
Converted amounts (≈) assume the structure as drawn.

Assays:
[1] = Molsidomin alone, no cyclodextrin; 37 °C; donor 1 and 2 mg/ml
Description: Visking-type cellophane membrane (average pore diameter 24 angstroms) was used. Aqueous solutions of Molsidomin at a concentration of 1 and 2 mg/ml were put in the donor cell, while distilled water was placed in the receptor compartment of the membrane permeation cell apparatus. The solutions were stirred by magnetic stirrers and were kept at 37+1° C. At appropriate time intervals samples were pipetted from the receptor solutions and concentration of Molsidomin permeated from the donor cell was measured by UV-spectrophotometry. The test was repeated in the presence of different cyclodextrins at different concentrations in the donor cell compartment.

[2] = pH value of 5-7; cited from earlier work
[3] = tested on: angina pectoris; conditions: cited from earlier work
[4] = compared to the organic nitrates; cited from earlier work
[5] = 25° C.; cited from earlier work
[6] = percutaneous, cited from earlier work
[7] = oral; cited from earlier work
[8] = Membrane permeation test, dialysis profile of Molsidomin-β-CD granule; assay type: physicochemical; conditions: Molsidomin 1 mg/ml or equivalent granule, 100% diffusion = 0.33 mg/ml
Description: Visking-type cellophane membrane (average pore diameter 24 angstroms) was used. Aqueous solutions of Molsidomin at a concentration of 1 and 2 mg/ml were put in the donor cell, while distilled water was placed in the receptor compartment of the membrane permeation cell apparatus.
Dialysis profile of Molsidomin-β-CD granule was examined using the same permeation cell as described above.
Molsidomin at a concentration of 1 mg/ml and equivalent amount of complex granule were used in the experiment
100% diffusion corresponding to 0.33 mg/ml Molsidomin concentration in the receptor cell.

**Q.** Which “Diffusion half life (T 50%) of Molsidomin” value [1] does the source give for `CCOC(=O)[N-]c1cn(N2CCOCC2)n[o+]1` [Molsidomin, N-ethoxycarbonyl-3-morpholino-sydnonimine] here?
**A.** 1.0 h

**Q.** What about the stability in water [2] of the same compound?
**A.** stable

**Q.** What about the “duration of effect compared to the organic nitrates” value ([3]; compared to the organic nitrates) of the same compound?
**A.** more lasting

**Q.** And the “duration of effect of oral preparation” value ([3]; oral, 2 mg of the active ingredient)?
**A.** 3 to 5 h

**Q.** And the habit forming [4]?
**A.** does not become habit forming

**Q.** What about the headaches [4] of the same compound?
**A.** rarely induces headaches which are also less severe

**Q.** And the side-effects [4]?
**A.** less side-effects

**Q.** What about the solubility in water [5] of the same compound?
**A.** 18 mg/mL (≈ 74.3 mM)

**Q.** What about the “bioavailability through the skin” value ([6]; Molsidomin itself) of the same compound?
**A.** 4%

**Q.** What about the “resorption through the skin” value ([6]; Molsidomin itself) of the same compound?
**A.** resorbed slowly and to a small extent

**Q.** What about the “resorption of Molsidomin relative to propylene-glycol” value [6] of the same compound?
**A.** of similar extent, and of similar quantity

**Q.** What about the “absorption along the whole Gi-tract” value [7] of the same compound?
**A.** fairly absorbed

**Q.** And the bioavailability [7]?
**A.** satisfactory

**Q.** What about the “Concentration of Molsidomin in the receptor cell” value (from here on “Concentration of Molsidomin”) ([8]; 1 hour) of the same compound?
**A.** 200 µg/mL

**Q.** And the “Concentration of Molsidomin” value ([8]; 2 hours)?
**A.** 290 µg/mL

**Q.** What about the “Concentration of Molsidomin” value ([8]; 3 hours) of the same compound?
**A.** 320 µg/mL

**Q.** And the “Concentration of Molsidomin” value ([8]; 4 hours)?
**A.** 340 µg/mL
